Test results published in PubChem BioAssay AID248 (DTP/NCI, 2004).
“And” between values parts separate entries of the source, which are not always exact repeats. Identical values can stand only once. Toxic doses and inconclusive results are not listed. Rule as the data show it: active = T/C of 150% or more; inactive = T/C below 125%.

Test system: L1210 leukemia ip in BDF1 mice, survival T/C
Assay: NCI In Vivo Anticancer Drug Screen. Data for tumor model L1210 Leukemia (intraperitoneal) in B6D2F1 (BDF1) mice
Settings: endpoint: mean survival time, higher = longer survival
Method in brief: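 Tumor was transplanted into mice, which were then dosed with test compound or vehicle alone. Survival was recorded for each group, and the treated figure was expressed relative to the control figure.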

[1] = dose: 100.0 mg/kg/injection, schedule: Q01DX009 (ip), vehicle: saline with Tween-80
[2] = dose: 100.0 mg/kg/injection, schedule: Q04DX003 (ip), vehicle: saline with Tween-80
[3] = dose: 200.0 mg/kg/injection, schedule: Q01DX009 (ip), vehicle: saline with Tween-80
[4] = dose: 200.0 mg/kg/injection, schedule: Q04DX003 (ip), vehicle: saline with Tween-80
[5] = dose: 400.0 mg/kg/injection, schedule: Q04DX003 (ip), vehicle: saline with Tween-80
[6] = dose: 50.0 mg/kg/injection, schedule: Q01DX009 (ip), vehicle: saline with Tween-80
[7] = dose: 100.0 mg/kg/injection, schedule: Q01DX001 (ip), vehicle: saline
[8] = dose: 200.0 mg/kg/injection, schedule: Q01DX001 (ip), vehicle: saline
[9] = dose: 400.0 mg/kg/injection, schedule: Q01DX001 (ip), vehicle: saline
[10] = dose: 100.0 mg/kg/injection, schedule: Q04DX002 (ip), vehicle: Klucel (hydroxypropylcellulose) (HPC)
[11] = dose: 200.0 mg/kg/injection, schedule: Q04DX002 (ip), vehicle: Klucel (hydroxypropylcellulose) (HPC)
[12] = dose: 400.0 mg/kg/injection, schedule: Q04DX002 (ip), vehicle: Klucel (hydroxypropylcellulose) (HPC)
[13] = dose: 100.0 mg/kg/injection, schedule: Q04DX003 (ip), vehicle: Klucel (hydroxypropylcellulose) (HPC)
[14] = dose: 200.0 mg/kg/injection, schedule: Q04DX003 (ip), vehicle: Klucel (hydroxypropylcellulose) (HPC)
[15] = dose: 400.0 mg/kg/injection, schedule: Q04DX003 (ip), vehicle: Klucel (hydroxypropylcellulose) (HPC)
[16] = dose: 100.0 mg/kg/injection, schedule: Q04DX003 (ip), vehicle: other
[17] = dose: 200.0 mg/kg/injection, schedule: Q04DX003 (ip), vehicle: other
[18] = dose: 400.0 mg/kg/injection, schedule: Q04DX003 (ip), vehicle: other
[19] = dose: 200.0 mg/kg/injection, schedule: Q01DX009 (ip), vehicle: Klucel (hydroxypropylcellulose) (HPC)

Measured: T/C

CC1(C)N=C(N)N=C(N)N1c1ccc2ccccc2c1
inactive: dose: 5.0 mg/kg/injection, schedule: Q01DX001 (ip), vehicle: other 105 % of control | dose: 10.0 mg/kg/injection, schedule: Q01DX001 (ip), vehicle: other 102 % of control | dose: 20.0 mg/kg/injection, schedule: Q01DX001 (ip), vehicle: other 96 % of control | dose: 25.0 mg/kg/injection, schedule: Q01DX015 (ip), vehicle: other 97 % of control | dose: 40.0 mg/kg/injection, schedule: Q01DX001 (ip), vehicle: other 105 % of control | dose: 50.0 mg/kg/injection, schedule: Q01DX015 (ip), vehicle: other 107 % of control | dose: 80.0 mg/kg/injection, schedule: Q01DX001 (ip), vehicle: other 100 % of control | dose: 100.0 mg/kg/injection, schedule: Q01DX001 (ip), vehicle: other 104 % of control

CCC(=O)c1ccc(NC(N)=S)cc1
inactive: dose: 20.0 mg/kg/injection, schedule: Q01DX005 (ip), vehicle: saline with Tween-80 94 % of control | dose: 40.0 mg/kg/injection, schedule: Q01DX005 (ip), vehicle: saline with Tween-80 95 % of control | dose: 80.0 mg/kg/injection, schedule: Q01DX005 (ip), vehicle: saline with Tween-80 94 % of control | dose: 160.0 mg/kg/injection, schedule: Q01DX005 (ip), vehicle: saline with Tween-80 101 % of control

CCOC(=O)/C(Cc1cnc2ccccc2n1)=N\O
inactive: [1] 94 % of control | [2] 105 % of control | [3] 96 % of control | [4] 100 % of control | dose: 400.0 mg/kg/injection, schedule: Q01DX009 (ip), vehicle: saline with Tween-80 100 % of control | [5] 105 % of control

O=C(Nc1ccccc1C(=O)c1ccccc1)c1ccc(Cl)cc1Cl
inactive: [6] 105 % of control | [1] 94 % of control | [3] 87 % of control

O=Cc1ccc2c3c(cccc13)CC2
inactive: [7] 96 % of control | [8] 101 % of control | [9] 100 % of control

O=C(Cc1cnccn1)c1ccc(C(=O)Cc2cnccn2)cc1
inactive: dose: 100.0 mg/kg/injection, schedule: Q04DX003 (ip), vehicle: carboxymethylcellulose (CMC) 94 % of control | dose: 200.0 mg/kg/injection, schedule: Q04DX003 (ip), vehicle: carboxymethylcellulose (CMC) 103 % of control | dose: 400.0 mg/kg/injection, schedule: Q04DX003 (ip), vehicle: carboxymethylcellulose (CMC) 102 % of control

NC1C2CC3CC1CC(C2)O3 (stereo not given)
inactive: dose: 25.0 mg/kg/injection, schedule: Q04DX002 (ip), vehicle: saline 103 % of control | dose: 50.0 mg/kg/injection, schedule: Q04DX002 (ip), vehicle: saline 106 % of control | dose: 100.0 mg/kg/injection, schedule: Q04DX002 (ip), vehicle: saline 106 % of control

CCOC(=O)c1nc(N2CCOCC2)c2ccccc2n1
inactive: [10] 104 % of control | [11] 101 % of control | [12] 95 % of control

CC(CC(=O)O)c1ccc(C(C)(C)C)cc1 (stereo not given)
inactive: [13] 95 % of control | [14] 107 % of control | [15] 98 % of control

O=C(O)C1=NN(c2ccc([N+](=O)[O-])cc2)C(=O)C1
inactive: [16] 106 % of control | [17] 105 % of control | [18] 106 % of control

Cc1c(Cl)c(Cl)c(NS(=O)(=O)c2ccccc2)c(NS(=O)(=O)c2ccccc2)c1Cl
inactive: dose: 100.0 mg/kg/injection, schedule: Q01DX009 (ip), vehicle: Klucel (hydroxypropylcellulose) (HPC) 95 % of control | [19] 103 % of control | dose: 400.0 mg/kg/injection, schedule: Q01DX009 (ip), vehicle: Klucel (hydroxypropylcellulose) (HPC) 100 % of control

CCCCN(C)N=Nc1ccccc1C(N)=O
inactive: dose: 89.0 mg/kg/injection, schedule: Q01DX009 (ip), vehicle: Klucel (hydroxypropylcellulose) (HPC) 108 % of control | dose: 89.0 mg/kg/injection, schedule: Q01DX009 (ip), vehicle: other 108 % of control | dose: 133.0 mg/kg/injection, schedule: Q01DX009 (ip), vehicle: Klucel (hydroxypropylcellulose) (HPC) 122 % of control | dose: 133.0 mg/kg/injection, schedule: Q01DX009 (ip), vehicle: other 122 % of control | dose: 177.0 mg/kg/injection, schedule: Q01DX001 (ip), vehicle: other 97 % of control | [19] 115 % of control | dose: 200.0 mg/kg/injection, schedule: Q01DX009 (ip), vehicle: other 108 % of control | dose: 266.0 mg/kg/injection, schedule: Q01DX001 (ip), vehicle: other 113 % of control | dose: 300.0 mg/kg/injection, schedule: Q01DX009 (ip), vehicle: Klucel (hydroxypropylcellulose) (HPC) 111 % of control and 124 % of control | dose: 300.0 mg/kg/injection, schedule: Q01DX009 (ip), vehicle: other 95 % of control and 90 % of control | dose: 400.0 mg/kg/injection, schedule: Q01DX001 (ip), vehicle: other 101 % of control

CC(C)=CCC/C(C)=C/C=C1C(=O)NC(=S)NC1=O
inactive: [6] 117 % of control | [1] 103 % of control | [3] 103 % of control

CO/N=C(/CSS(=O)(=O)O)c1ccccc1
inactive: [10] 96 % of control | [11] 96 % of control | [12] 96 % of control

O=C(Nc1ccccc1)Nc1ccccc1
inactive: [6] 96 % of control | [7] 97 % of control | [1] 91 % of control | [13] 90 % of control | [8] 92 % of control | [3] 103 % of control | [14] 95 % of control | [9] 94 % of control | [15] 96 % of control

CCCCCCCCCCC(=O)NC1CCC(CC2CCCCC2)CC1 (stereo not given)
inactive: [16] 101 % of control | [17] 103 % of control | [18] 101 % of control

COc1ccc(/C=N/N2CCN(/N=C/c3ccc(OC)c(O)c3)CC2)cc1O
inactive: [7] 93 % of control | [8] 87 % of control | [9] 96 % of control

CCCCOC(=O)c1ccc(OC(=O)Nc2ccc(Cl)cc2)cc1
inactive: dose: 25.0 mg/kg/injection, schedule: Q01DX009 (ip), vehicle: saline with Tween-80 101 % of control and 110 % of control | [6] 101 % of control and 110 % of control | dose: 100.0 mg/kg/injection, schedule: Q01DX001 (ip), vehicle: saline with Tween-80 104 % of control | dose: 100.0 mg/kg/injection, schedule: Q04DX002 (ip), vehicle: saline with Tween-80 93 % of control and 115 % of control | [2] 94 % of control | dose: 200.0 mg/kg/injection, schedule: Q01DX001 (ip), vehicle: saline with Tween-80 95 % of control | dose: 200.0 mg/kg/injection, schedule: Q04DX002 (ip), vehicle: saline with Tween-80 95 % of control and 110 % of control | [4] 94 % of control | dose: 400.0 mg/kg/injection, schedule: Q01DX001 (ip), vehicle: saline with Tween-80 98 % of control | dose: 400.0 mg/kg/injection, schedule: Q04DX002 (ip), vehicle: saline with Tween-80 100 % of control and 106 % of control | [5] 97 % of control

CCCCCCCCCCCCCC(=O)[O][Hg][c]1ccccc1
inactive: dose: 75.0 mg/kg/injection, schedule: Q01DX001 (ip), vehicle: steriod suspending solution 96 % of control

CN=C(NC)c1ccc(NC(=O)c2cc(OC)cc(C(=O)Nc3ccc(C(=NC)NC)cc3)c2)cc1
inactive: dose: 3.75 mg/kg/injection, schedule: Q01DX Z (ip), vehicle: saline 100 % of control | dose: 7.5 mg/kg/injection, schedule: Q01DX Z (ip), vehicle: saline 98 % of control | dose: 15.0 mg/kg/injection, schedule: Q01DX Z (ip), vehicle: saline 98 % of control

N#CCCCCCCN=[N+]=[N-]
inactive: dose: 37.5 mg/kg/injection, schedule: Q04DX003 (ip), vehicle: saline 106 % of control | dose: 75.0 mg/kg/injection, schedule: Q04DX003 (ip), vehicle: saline 101 % of control | dose: 150.0 mg/kg/injection, schedule: Q04DX003 (ip), vehicle: saline 102 % of control

CC(C)=CCC/C(C)=C/CC/C(C)=C/COC(N)=O
inactive: [13] 93 % of control | [14] 96 % of control | [15] 91 % of control
